Assay results from patent publication US20240353410A1, “FRET ENZYMATIC SUBSTRATE AND USES THEREOF IN LIVER CANCER” (URTESTE S.A., priority 2021, published 2024).
“And” between values parts separate entries of the source, which are not always exact repeats. Equal entries are not always repeated. *1 amine or outer side, *2 acyl side, *3 side chain or, on linkers, in order; H or OH if unused. Where no end group is shown, it is not given here. [ ]: non-standard residue; d: D form. Benzoyl(5-NH,2-NO2) = O=C(c1cc(N[*:1])ccc1[N+](=O)[O-])[*:2]; 2Abz = Nc1ccccc1C(=O)O

Legend:
Format in all cases: biochemical, human
[1] = system: proteolytic enzymes in urine from a subject suffering from liver cancer; test: Hydrolysis of the chromogenic substrate in urine from subjects with liver cancer (absorbance at 405 nm); conditions: for Results of absorbance analysis (increase in absorbance, 405 nm): 37° C., 60 minutes, pH 8.0
Description: (§1) The activity of the novel compounds according to the invention was studied in a group of 20 subjects diagnosed with liver cancer using the representative compound according to the invention. […] The remaining compounds according to the invention are characterized by the analogous mechanism of action. For this purpose, the representative compound according to the invention, ABZ^1-Lys^2-Ser^3-Ser^4-Asp^5-ANB^6-NH2, was dissolved in dimethyl sulfoxide (at a concentration of 0.5 mg/mL) and then 50 μL of the solution was mixed with 120 μL of a buffer (200 mM Tris-HCl, pH 8.0) and 80 μL of urine from a subject suffering from liver cancer. The measurement was performed on a 96-well plate designed for measuring absorbance and each sample was analysed in triplicate at the temperature of 37° C. The duration of the measurement was 60 minutes. During the measurement, the wavelength characteristic for the chromophore (ANB-NH2) being released was monitored at the wavelength 405 nm (range 380-430 nm).
The observed magnitude of increase in absorbance in time is different for each of the examined samples.
Such a result may be due to the difference in the activity as well as the amount of enzymes responsible for the enzymatic cleavage (proteolysis). […] The result indicates the […] of proteolytic enzymes characteristic of liver cancer.

[2] = system: urine samples taken from healthy persons; test: Hydrolysis of the chromogenic substrate in urine from healthy subjects (absorbance at 405 nm); conditions: for Results of absorbance analysis (increase in absorbance, 405 nm): triplicate
[3] = system: urine samples from patients with another neoplastic disease; test: Cleavage selectivity: substrate incubated with urine from patients with other cancers; conditions: for Measurement 1-3 (increase in absorbance): urine, triplicate
Description: as §1
Furthermore, the dependence of the cleavage selectivity of the substrate, i.e. the compound according to the invention, on the cancer being examined, was studied. […] This indicates cleavage selectivity of the compounds according to the invention, which makes them suitable for the specific detection of enzymatic activity specific to liver cancer and specific diagnosis of liver cancer.

[4] = system: urine taken from a person diagnosed with liver cancer; test: RP HPLC analysis of substrate cleavage in urine with liver cancer; conditions: randomly selected urine from a person diagnosed with liver cancer
[5] = system: enzyme in the studied material (urine); test: Dependence of substrate hydrolysis on reaction pH; conditions: FIG. 4
Description: Furthermore, measurements concerning the dependence of the proteolytic activity of the representative compound according to the invention on the reaction pH were performed.

- Cleavage of the substrate in urine ([1]; all samples 1-20 from persons suffering from liver cancer): underwent cleavage
- Results of absorbance analysis (increase in absorbance, 405 nm) ([1]; urine sample W1, liver cancer, triplicate): 0.03221 and 0.03351 and 0.02109
- Results of absorbance analysis (increase in absorbance, 405 nm) ([1]; urine sample W2, liver cancer, triplicate): 0.02276 and 0.02037 and 0.02884
- Results of absorbance analysis (increase in absorbance, 405 nm) ([1]; urine sample W4, liver cancer, triplicate): 0.02897 and 0.02718 and 0.02812
- Results of absorbance analysis (increase in absorbance, 405 nm) ([1]; urine sample W5, liver cancer, triplicate): 0.171 and 0.1445 and 0.1684
- Results of absorbance analysis (increase in absorbance, 405 nm) ([1]; urine sample W6, liver cancer, triplicate): 0.02035 and 0.01966 and 0.02513
- Results of absorbance analysis (increase in absorbance, 405 nm) ([1]; urine sample W8, liver cancer, triplicate): 0.0186 and 0.0199 and 0.01818
- Results of absorbance analysis (increase in absorbance, 405 nm) ([1]; urine sample W9, liver cancer, triplicate): 0.0313 and 0.02635 and 0.0275
- Results of absorbance analysis (increase in absorbance, 405 nm) ([1]; urine sample W10, liver cancer, triplicate): 0.04583 and 0.03322 and 0.03755
- Results of absorbance analysis (increase in absorbance, 405 nm) ([1]; urine sample W11, liver cancer, triplicate): 0.02091 and 0.01156 and 0.01536
- Results of absorbance analysis (increase in absorbance, 405 nm) ([1]; urine sample W12, liver cancer, triplicate): 0.03055 and 0.02126 and 0.0183
- Results of absorbance analysis (increase in absorbance, 405 nm) ([1]; urine sample W13, liver cancer, triplicate): 0.01583 and 0.01383 and 0.01431
- Results of absorbance analysis (increase in absorbance, 405 nm) ([1]; urine sample W14, liver cancer, triplicate): 0.00394 and 0.00525 and 0.00441
- Results of absorbance analysis (increase in absorbance, 405 nm) ([1]; urine sample W15, liver cancer, triplicate): 0.01622 and 0.01718 and 0.01233
- Results of absorbance analysis (increase in absorbance, 405 nm) ([1]; urine sample W16, liver cancer, triplicate): 0.01265 and 0.01251 and 0.00722
- Results of absorbance analysis (increase in absorbance, 405 nm) ([1]; urine sample W17, liver cancer, triplicate): 0.0012 and 0.0018 and 0.0015
- Results of absorbance analysis (increase in absorbance, 405 nm) ([1]; urine sample W18, liver cancer, triplicate): 0.01937 and 0.01539 and 0.01955
- Results of absorbance analysis (increase in absorbance, 405 nm) ([1]; urine sample W19, liver cancer, triplicate): 0.0091 and 0.0093 and 0.0089
- Results of absorbance analysis (increase in absorbance, 405 nm) ([1]; urine sample W20, liver cancer, triplicate): 0.1528 and 0.1867 and 0.1909
- Measurement 1-3 (increase in absorbance) ([1]; urine, cancer location Liver, selectivity test of Table 2, triplicate): 0.0067 and 0.0072 and 0.0056
- Dependence of hydrolysis level on pH [5]: maximum activity at alkaline pH
Substance: ABZ-Lys-Ser-Ser-Asp-ANB-NH2 ([2Abz]KSSD-{Benzoyl(5-NH,2-NO2)-NH2}) [chromogenic/FRET peptide substrate; ABZ is 2-aminobenzoic acid, ANB-NH2 is amide of 5-amino-2-nitrobenzoic acid]
- Results of absorbance analysis (increase in absorbance, 405 nm) ([2]; urine sample 21, healthy person): 0.000000
- Results of absorbance analysis (increase in absorbance, 405 nm) ([2]; urine sample 22, healthy person): 0.000000
- Results of absorbance analysis (increase in absorbance, 405 nm) ([2]; urine sample 23, healthy person): 0.000000
- Results of absorbance analysis (increase in absorbance, 405 nm) ([2]; urine sample 24, healthy person): 0.000000
- Results of absorbance analysis (increase in absorbance, 405 nm) ([2]; urine sample 25, healthy person): 0.000000
- Results of absorbance analysis (increase in absorbance, 405 nm) ([2]; urine sample 26, healthy person): 0.000000
- Results of absorbance analysis (increase in absorbance, 405 nm) ([2]; urine sample 27, healthy person): 0.000000
- Results of absorbance analysis (increase in absorbance, 405 nm) ([2]; urine sample 28, healthy person): 0.000000
- Results of absorbance analysis (increase in absorbance, 405 nm) ([2]; urine sample 29, healthy person): 0.000000
- Results of absorbance analysis (increase in absorbance, 405 nm) ([2]; urine sample 30, healthy person): 0.000000
- Results of absorbance analysis (increase in absorbance, 405 nm) ([2]; urine sample 31, healthy person): 0.000000
- Results of absorbance analysis (increase in absorbance, 405 nm) ([2]; urine sample 32, healthy person): 0.000000
- Results of absorbance analysis (increase in absorbance, 405 nm) ([2]; urine sample 33, healthy person): 0.000000
- Results of absorbance analysis (increase in absorbance, 405 nm) ([2]; urine sample 34, healthy person): 0.000000
- Results of absorbance analysis (increase in absorbance, 405 nm) ([2]; urine sample 35, healthy person): 0.000000
- Results of absorbance analysis (increase in absorbance, 405 nm) ([2]; urine sample 36, healthy person): 0.000000
- Results of absorbance analysis (increase in absorbance, 405 nm) ([2]; urine sample 37, healthy person): 0.000000
- Results of absorbance analysis (increase in absorbance, 405 nm) ([2]; urine sample 38, healthy person): 0.000000
- Results of absorbance analysis (increase in absorbance, 405 nm) ([2]; urine sample 39, healthy person): 0.000000
- Results of absorbance analysis (increase in absorbance, 405 nm) ([2]; urine sample 40, healthy person): 0.000000
- Increase in absorbance / hydrolysis in urine ([2]; urine samples 21 to 40 from healthy persons): does not lead to an increase in absorbance
- Cleavage / increase in absorbance in urine of other cancers ([3]; testicular, intestine, kidney, prostate, pancreatic, bile duct, lung, ovarian and rectum cancer): is not subject to cleavage
- Measurement 1-3 (increase in absorbance) ([3]; cancer location Intestine): 0
- Measurement 1-3 (increase in absorbance) ([3]; cancer location Kidney): 0
- Measurement 1-3 (increase in absorbance) ([3]; cancer location Lung): 0
- Measurement 1-3 (increase in absorbance) ([3]; cancer location Ovary): 0
- Measurement 1-3 (increase in absorbance) ([3]; cancer location Pancreas): 0
- Measurement 1-3 (increase in absorbance) ([3]; cancer location Prostate): 0
- Measurement 1-3 (increase in absorbance) ([3]; cancer location Rectum): 0
- Measurement 1-3 (increase in absorbance) ([3]; cancer location Testicle): 0
- Measurement 1-3 (increase in absorbance) ([3]; cancer location bile ducts): 0
- Cleavage products of the substrate (RP HPLC) [4]: cleaves into the peptide fragment ABZ-Lys-Ser-Ser-Asp-OH and the chromophore group of the compound (ANB-NH2)
